Assay results taken from patent publication US20210085749A1, “Therapeutic and Neuroprotective Peptides” (Allegro Pharmaceuticals, LLC, priority 2017, published 2021).
Values joined by “and” are separate entries in the source; they are usually repeats but may differ in a detail not shown here. Equal values may be shown once. “Also recorded” adds a separate entry of the source. One block for each molecule: values may come before it. Square brackets hold non-standard residues; d marks the D form. Peptide text beside a SMILES is read from it. Cya = N[CH](CS(=O)(=O)O)C(=O)O

Columns and labels:
[1] = tested on: ARPE-19 cells; assay: In vitro protection of RPE cells against hydrogen peroxide, Trypan blue exclusion cell count; format: cell-based; settings: 8 hours post exposure
Protocol: Hydrogen peroxide (H2O2), a physiological mediator of oxidative stress, is known to induce apoptosis in retinal pigment epithelial (RPE) cells.
ARPE-19 cells were incubated in DMEM/F12 medium supplemented with 10% fetal bovine serum (FBS) and 50 μg/ml streptomycin and 50 μg/ml of penicillin at 37° C. in an atmosphere of 5% CO2.To induce differentiation, ARP-19 cells were cultured in a Laminin coated transwells for 2 weeks in the same medium supplemented with 1% FBS and antibiotics. The RPE cells were then isolated and aliquots of about 150 μl-200 μl of cell suspension were dispensed into the petri dishes containing control medium. The cells were then incubated at 37 degrees C. for 24 hours before use.
Thereafter, the following four (4) separate neuronal cell dishes were prepared as shown below: • A) Control Retinal RPE cells; • B) Retinal RPE cells incubated with 1.0 mg/ml ALG-1001 (Luminate); • C) Retinal RPE cells incubated with 100 μM of Hydrogen Peroxide; and • D) Retinal RPE cells incubated with 1.0 mg/ml ALG-1001 (Luminate) for 24 hours before exposure to 100 μM of Hydrogen Peroxide.
(§1) Eight (8) hours post exposure, the cell numbers were measured using Trypan blue exclusion assay in a Neubaur Chamber.

[2] = tested on: Wister rat retina; assay: In vivo dose-related neurotoxic effects of intravitreal Kainic acid, retinal histopathology; set-up: species or system Wister rats; settings: intravitreal 20 μl of 0.5, 5.0, 50.0 mM; 24 hours post treatment
Protocol: The right eyes of 4 Wister rats were injected intravitreally with 20 μl of the four different solutions, as follows: A) BSS solution as control, B) 0.5 mM of Kainic acid, C) 5.0 mM of Kainic acid and D) 50.0 mM of Kainic acid.
The rats were sacrificed 24 hours post treatment and the eyes were prepared for Histopathology examination.

[3] = tested on: Retinal Neuronal cells; assay: In vitro protection of retinal neuronal cells against Kainic acid, Trypan blue exclusion cell count; format: cell-based, CD1 mice; settings: 8 hours post exposure
Protocol: CD1 mice were euthanized by decapitation, eyes were rapidly enucleated into DMEM complement with antibiotic solution and the retina were isolated from the pigment epithelium.
The isolated retina was incubated in Hank's medium containing 2.5 mg/ml papain and 0.1 mg/ml of cysteine for 15 minutes at 30° C. After rinsing the Hank's medium, supplemented with 1.9 mM of CaCl2), 0.6 mM of MgCl2 and 0.1 mg/ml of bovine serum albumin.
The retina was mechanically dissociated, about 150 μl-200 μl of cell suspension was dispensed into the petri dish containing control medium. Bipolar cells were identified under a microscope by the cells morphology. The cells were incubated for 6 hours before use.
Four (4) separate Neuronal cell dishes were prepared, as follows: A) Control Retinal Neuronal cells, B) Retinal Neuronal cells incubated with ALG-1001 (Luminate) 1.0 mg/ml, C) Retinal Neuronal cells incubated with […], D) Retinal Neuronal cells incubated with Luminate 1.0 mg/ml for 24 hours before exposure to 500 μM of Kainic acid.
as §1

[4] = tested on: retinal ganglion cells; assay: Ocular neuroprotection in vivo, rat model of elevated intraocular pressure (optic nerve ligation), ganglion cell counts; set-up: species or system Wister rats
Protocol: Healthy Wister rats (n=8) ten (10) weeks of age were kept in a vivarium maintained at a constant temperature of 26° C., and a constant light-dark cycle (14 hours and 10 hours respectively) with food available ad libitum. The rats were randomly divided into a Luminate treatment group of five (5) animals (Group A) and a Basic Salt Solution (BSS-control) treatment group of three (3) animals (Group B).
The animals of Group A each received a single intravitreal injection of 1.28 mg/20 μL of Luminate in the right eye. The animals of Group B each received a single intravitreal injection of 20 μL of balanced salt solution (BSS). The left eyes of all animals in Groups A and B were not injected and were used as untreated controls. The intravitreal injections were administered 2 mm posterior to the limbus in the supronasal quadrant using a 30-gauge needle attached to a 1.0 cc syringe. Care was taken to avoid damage to the lens or retina.
Twenty-four (24) hours after administration of the injections the rats were anesthetized by intraperitoneal injection of 3.0 mL/kg of a mixture of ketamine Hydrochloride (2.5 mg/mL), diazepam (2.0 mg/mL) and atropine (0.1 mg/mL). The eyes were then subjected to peritoneal conjunctival detachment of the lateral rectus muscle to expose the optic nerve. The optic nerve was then ligated with silk suture for a period of 60 minutes during which the absence of blood flow in the retina of each ligated eye was verified by inspection using a Plano contact lens. The ligatures were removed after 60 minutes, and restoration of blood flow to the retina was verified in each previously-ligated eye using the Plano contact lens.
The eyes were then enucleated and fixed for histopathological analysis. Specimens of the retina and optic nerve from each eye were dehydrated and embedded in paraffin. Horizontal sections 4 microns thick were cut and stained with hematoxylin and eosin. Under light microscopy, ganglion cell counts were counted in axial sections of the retina of each eye from ora serrata through the optic nerve. Also, in each section, the number of ganglion cells per millimeter through the total length of the retina was calculated digitally, using a measuring slide calibrated for this purpose.
Measurement of the inner plexiform layer was performed by observing the slides at a magnification of 40× no more than 1 mm from the optic nerve.
The results were subjected to statistical analysis. The results for each group were expressed as mean±standard deviation and the statistical significance between the results of the groups was evaluated by 2 way ANOVA as well as the Mann-Whitney U test. Probabilities of <0.05 were deemed to be significant.

[5] = tested on: retinal Muller cells; assay: In vitro protection of retinal Muller cells against Kainic acid, Trypan blue exclusion cell count; format: cell-based, CD1 mice; settings: 1.0 mg/ml for 24 hours before exposure to 500 μM Kainic acid (Plate D), 48 hours post exposure
Protocol: CD1 mice were euthanized by decapitation, eyes were rapidly enucleated into DMEM complement with antibiotic solution and stored overnight at room temperature. Subsequently the intact globes were incubated in DMEM containing 0.1% trypsin and 70 U/ml collagenase at 37° C. for 60 minutes.
The incubated materials were placed in a petri dish containing DMEM supplemented with 10% fetal bovine serum, and the retinas were removed without the RPE cells into small aggregates and seeded into 35 mm culture dishes. Medium was unchanged for 6 days and then replenished every 3-4 days. The cultures were maintained at 37° C. in a […]/95% O2 in a humidified incubator.
When the cell outgrowth had attained semiconfluency, (80%) retinal aggregates were removed by pipetting the medium into the dish. This operation was repeated three (3) times until a purified flat cell population was obtained. After 24 hours, the cells were exposed to the experimental conditions.
Four (4) separate Muller cell dishes were prepared, as follows: A) Control Muller cells; B) Muller cells incubated with ALG-1001 (Luminate) 1.0 mg/ml; C) Muller cells incubated with 500 μM of Kainic acid and D) Muller cells incubated with Luminate 1.0 mg/ml for 24 hours before exposure to 500 μM of Kainic acid. Forty Eight (48) hours post exposure, the cell numbers were measured using Trypan blue exclusion assay in a Neubaur Chamber.

[6] = Human prospective open label study in Dry AMD, Best Corrected Visual Acuity; format: in vivo; settings: individual Dry AMD patient; single intravitreal injection 1.0 mg/50 μL
Protocol: To determine if a single Luminate intravitreal injection of 1.0 mg/50 μL has any effect on improving Best Corrected Visual Acuity (BCVA) of Dry AMD subjects with moderate to moderately sever Dry AMD. This is a prospective interventional, open label, IRB approved human clinical proof of concept study conducted in 7 human subjects with moderate to moderately severe Dry AMD. Main inclusion criteria involved patients with Dry Macular Degeneration eyes with relatively intact photoreceptor and RPE layers in the central 1 mm of the macula by OCT. The baseline BCVA of the subjects was between 20/30 and 20/400 with no evidence of sub-retinal fluid or CNV and no history of Anti-VEGF treatment. All recruited patients underwent a baseline single intravitreal injection of Luminate 1.0 mg/50 μL and were monitored monthly, in addition central macular thickness, OCT, digital color photographs and pre and post treatment BCVA were obtained.

RPE cell count, % of the control cell count ([1]; 100 μM Hydrogen Peroxide alone (Plate C)): 78%
SMILES: OO [Hydrogen Peroxide, Hydrogen peroxide, reference compound]

SMILES: C=C(C)[C@H]1CN[C@H](C(=O)O)[C@H]1CC(=O)O [Kainic acid, reference compound]
retinal degeneration by histopathology [2]: dose-related retinal neurotoxisity
neuronal cell count, % compared to Control ([3]; 100 μM Kainic acid only (Plate C)): 58%

SMILES: CC(O)C(NC(=O)C(CS(=O)(=O)O)NC(=O)CNC(=O)C(CCCNC(=N)N)NC(=O)CN)C(=O)N1CCCC1C(=O)O (centres unmarked) [Luminate, Glycinyl-Arginyl-Glycinyl-Cysteic-Threonyl-Proline] (H-GRG[Cya]TP-OH; configuration not given here)
Difference between medians: Actual (CONTROLS vs. CASES) ([4]; ganglion cells per field, BSS controls minus treated): −9.000
Difference between medians: Hodges-Lehmann (CONTROLS vs. CASES) ([4]; ganglion cells per field, 95.05% CI −13.00 to −6.000): −10.00
neuroprotective effect in rat model of elevated IOP ([4]; intravitreal administration, p<0.0001 vs BSS (ANOVA, Mann-Whitney)): significant neuroprotective effects
Median of column A (ganglion cells per field, CASES) ([4]; n = 54 fields, Mann-Whitney vs BSS controls P<0.0001): 18.00, n = 54
SUM of ganglion cells over all fields ([4]; per treated eye (case), intravitreal 1.28 mg/20 μL 24 h before 60 min optic nerve ligation): 234 and 165 and 259 and 218 and 175
RPE cell count, % of the control cell count ([1]; 1.0 mg/ml for 24 hours before exposure to 100 μM Hydrogen Peroxide (Plate D)): 90%
Muller cell count compared with other plates [5]: higher Muller cell count than any of the other plates
neuronal cell count, % of Control ([3]; 1.0 mg/ml for 24 hours before exposure to 500 μM Kainic acid (Plate D)): 80%
BCVA 3 Months Post Treatment [6]: 1.0 log Mar (2×) and 1.3 log Mar and 0.20 log Mar and 0.3 log Mar and 0.6 log Mar
BCVA 3 Months Post Treatment (Snellen) [6]: 20/200 (2×) and 20/400 and 20/32 and 20/40 and 20/80
BCVA letters gained 3 Months Post Treatment vs baseline [6]: up to 20 letters; also recorded: Gained 15 letters; also recorded: Gained no letters; also recorded: Gained 10 letters; also recorded: Gained 20 letters
